Literature values, collected in US20220265666A1, “METHODS OF TREATING SUBSTANCE ABUSE DISORDER, DYSPNEA, TINNITUS, AND CHILD AND ADOLESCENT DEPRESSION” (Praxis Precision Medicines, Inc., priority 2019, published 2022).
Read-outs that look alike come from different tables or passages of the source.

Columns and labels:
[1] = tested on: patients with well controlled asthma
[2] = tested on: symptoms of tinnitus; conditions: clinical studies
[3] = tested on: tinnitus behavior; conditions: non-clinical models of tinnitus
[4] = tested on: craving to cocaine; conditions: clinical studies
[5] = second day, same patients, previous inhalation with diazepam
[6] = first day of testing, methacholine inhalation 6 mg/mL, no diazepam, 12 patients

Structure (SMILES): CN1C(=O)CN=C(c2ccccc2)c2cc(Cl)ccc21 [diazepam]
- effect on bronchoconstriction induced by methacholine ([1]; diazepam aerosol, 12 patients with well controlled asthma): reduced the bronchoconstriction induced by methacholine
- FEV1 after methacholine inhalation [1, 5]: 2.21 L
- FEV1 before methacholine inhalation [1, 5]: 2.48 L

Structure (SMILES): O=C1CN=C(c2ccccc2Cl)c2cc([N+](=O)[O-])ccc2N1 [clonazepam]
- effect on symptoms of tinnitus [2]: control some symptoms of tinnitus

Structure (SMILES): CNC1(c2ccccc2Cl)CCCCC1=O (stereo not drawn) [ketamine]
- effect on tinnitus behavior [3]: not those that reduce excitation (i.e., ketamine) reverse the tinnitus behavior

Structure (SMILES): CC(=O)OC(C)C[N+](C)(C)C (stereo not drawn) [methacholine]
- FEV1 after methacholine inhalation [1, 6]: 1.69 L
- FEV1 before methacholine inhalation [1, 6]: 2.98 L

Structure (SMILES): C=CC(N)CCC(=O)O (stereo not drawn) [vigabatrin]
- effect on tinnitus behavior [3]: reverse the tinnitus behavior

Structure (SMILES): CC(=O)[C@H]1CC[C@H]2[C@@H]3CCC4=CC(=O)CC[C@]4(C)[C@H]3CC[C@]12C [Progesterone]
- effect on craving to cocaine [4]: decrease craving to cocaine
